According to ChEMBL document CHEMBL1208744, “Petiolins J-M, prenylated acylphloroglucinols from Hypericum pseudopetiolatum var. kiusianum” (Bioorg Med Chem Lett, 2010):
In brackets after ≈: the same amount, converted by molar mass.

Key:
[1] = system: L1210; test: Cytotoxicity against mouse L1210 cells; type: functional, cell-based
[2] = system: Micrococcus luteus; test: Antimicrobial activity against Micrococcus luteus; type: functional
[3] = system: KB; test: Cytotoxicity against human KB cells; type: functional; details: read-out: MIC
[4] = system: Cryptococcus neoformans; test: Antimicrobial activity against Cryptococcus neoformans; type: functional
[5] = system: Trichophyton mentagrophytes; test: Antimicrobial activity against Trichophyton mentagrophytes; type: functional

Structure (SMILES): CC(C)=CCC[C@]1(C)Oc2c(c(O)c(C)c(O)c2C(=O)C(C)C)C[C@H]1O [PETIOLIN J]
- IC50 [1]: > 10 µg/mL
- MIC [2]: 8 µg/mL (≈ 22.1 µM)
- cytotoxic concentration [3]: > 10 µg/mL
- MIC [4]: 16 µg/mL (≈ 44.1 µM)
- MIC [5]: 16 µg/mL (≈ 44.1 µM)

Structure (SMILES): Cc1c(O)c(C(=O)C(C)C)c2c3c1OC(C)(C)[C@@H]1CC[C@@](C)(C[C@@H]31)O2 [PETIOLIN K]
- IC50 [1]: > 10 µg/mL
- cytotoxic concentration [3]: > 10 µg/mL

Structure (SMILES): CCC(C)C(=O)C1=C2O[C@@H]([C@@](C)(O)CCC=C(C)C)C[C@]2(CC=C(C)C)C(=O)C(C)(C)C1=O (stereo partly specified) [PETIOLIN L]
- IC50 [1]: > 10 µg/mL
- cytotoxic concentration [3]: > 10 µg/mL

Structure (SMILES): CC(C)=CCC[C@](C)(O)[C@H]1C[C@@]2(CC=C(C)C)C(=O)C(C)(C)C(=O)C(C(=O)C(C)C)=C2O1 [PETIOLIN M]
- IC50 [1]: > 10 µg/mL
- cytotoxic concentration [3]: > 10 µg/mL
